Key:
ERα = target: T1, ERα (Homo sapiens, UniProt P03372); assay: ERα luciferase reporter (pERE2TATA-LUC) transactivation assay in transfected HEK293 cells; format: cell-based; design: expressed in transfected cells; host or cells: HEK293; conditions: 24 hours; for ERα receptor activation relative to 10 nM E2 corresponding 100: Table 1, sample concentration 10 μM, mean of at least three independent transfections, SEM typically <15%; for ERα in vitro activity (receptor activation relative to 10 nM E2): Table 2, previously published compounds, test compound 10 μM
T1 sequence (P03372 1-595): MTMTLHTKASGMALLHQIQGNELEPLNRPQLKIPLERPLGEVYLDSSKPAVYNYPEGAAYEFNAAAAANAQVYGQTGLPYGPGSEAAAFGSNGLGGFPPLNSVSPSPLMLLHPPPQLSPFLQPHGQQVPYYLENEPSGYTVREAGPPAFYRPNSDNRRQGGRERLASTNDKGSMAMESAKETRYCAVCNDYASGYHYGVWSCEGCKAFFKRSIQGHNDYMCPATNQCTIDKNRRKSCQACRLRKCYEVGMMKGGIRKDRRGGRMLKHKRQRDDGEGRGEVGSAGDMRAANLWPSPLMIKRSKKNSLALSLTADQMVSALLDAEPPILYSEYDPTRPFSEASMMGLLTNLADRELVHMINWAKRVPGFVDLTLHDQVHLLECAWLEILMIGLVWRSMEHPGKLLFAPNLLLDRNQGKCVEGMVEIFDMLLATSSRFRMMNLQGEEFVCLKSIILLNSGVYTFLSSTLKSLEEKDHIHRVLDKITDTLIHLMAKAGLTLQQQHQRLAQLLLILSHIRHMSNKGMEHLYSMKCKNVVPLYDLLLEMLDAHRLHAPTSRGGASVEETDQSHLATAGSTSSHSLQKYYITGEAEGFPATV
Protocol: (§1) All other reagents were of reagent grade from Sigma or Fluka. One day before transfection, HEK293 cells were seeded in 48-well plates (70×10^3 cells per well) in phenol-free Dulbecco's modified Eagle medium supplemented with 5% delipidated fetal bovine serum (Sigma) and antibiotics. After a medium change, the cells were transfected for 4 hours with 5 ng ERα or ERβ expression vector, 75 ng reporter plasmid pERE2TATA-LUC and 20 ng control plasmid pCMVβ by the calcium phosphate method. After transfection, the cells received fresh medium containing either vehicle (0.1% v/v) or test compound (10 μM). After 24 hours, the cells were washed, lysed and luciferase and β-galactosidase activities were determined from 20 μl of lysates with the Victor^2TM reader (PerkinElmer Wallac, Turku, Finland). […] The data are means±SEM of at least three independent transfections.

ERβ = ERβ (Homo sapiens, UniProt Q92731); assay: ERβ luciferase reporter (pERE2TATA-LUC) transactivation assay in transfected HEK293 cells; format: cell-based; design: expressed in transfected cells; host or cells: HEK293; conditions: for ERβ receptor activation relative to 10 nM E2 corresponding 100: Table 1, sample concentration 10 μM, mean of at least three independent transfections, SEM typically <15%; for ERβ receptor activation relative to 10 nM E2 corresponding 100 / ERβ in vitro activity (receptor activation relative to 10 nM E2): 24 hours; for Emax at 10 µM: HEK293, 24 h, read-out: ERβ receptor activation relative to 10 nM E2 corresponding 100, Table 1, sample concentration 10 μM, mean of at least three independent transfections, SEM typically <15%; for ERβ in vitro activity (receptor activation relative to 10 nM E2): Table 2, previously published compounds, test compound 10 μM
Protocol: as §1

Sequence of ERβ (Q92731 whole entry): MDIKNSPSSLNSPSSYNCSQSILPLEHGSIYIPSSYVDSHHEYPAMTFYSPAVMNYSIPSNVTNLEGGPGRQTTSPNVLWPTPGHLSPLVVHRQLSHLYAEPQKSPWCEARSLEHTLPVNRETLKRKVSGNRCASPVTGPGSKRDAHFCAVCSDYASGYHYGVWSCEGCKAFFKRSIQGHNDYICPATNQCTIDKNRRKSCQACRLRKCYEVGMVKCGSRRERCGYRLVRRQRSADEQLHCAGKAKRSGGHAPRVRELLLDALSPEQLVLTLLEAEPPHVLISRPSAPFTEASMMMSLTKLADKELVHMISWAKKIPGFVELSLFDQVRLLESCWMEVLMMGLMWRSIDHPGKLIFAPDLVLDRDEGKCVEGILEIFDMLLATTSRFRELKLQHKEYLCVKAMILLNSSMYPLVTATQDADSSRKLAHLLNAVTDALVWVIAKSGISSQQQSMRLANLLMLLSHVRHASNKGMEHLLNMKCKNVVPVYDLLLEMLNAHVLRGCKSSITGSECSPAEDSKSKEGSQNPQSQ

ERα receptor activation relative to 10 nM E2 corresponding 100 (ERα) [%] | ERβ receptor activation relative to 10 nM E2 corresponding 100 (ERβ) [%] | Emax at 10 µM (ERβ) [%] | ERα in vitro activity (receptor activation relative to 10 nM E2) (ERα) [%] | ERβ in vitro activity (receptor activation relative to 10 nM E2) (ERβ) [%] | Structure (SMILES)
8.4 | 3.4 | – | – | – | COc1ccccc1CC(=O)CC(O)CCc1cccc(F)c1 (single isomer, unassigned) [Compound 22a, 6-(3-Fluorophenyl)-4-hydroxy-1-(2-methoxyphenyl)-2-hexanone]
5.6 | – | 2.9 | – | – | COc1ccccc1CC(=O)CC(O)CCc1cccc(F)c1 (single isomer, unassigned) [Compound 22b, 6-(3-Fluorophenyl)-4-hydroxy-1-(2-methoxyphenyl)-2-hexanone]
1.6 | −0.8 | – | – | – | COc1ccc(CC(O)CC(=O)CCc2ccccc2)cc1 (single isomer, unassigned) [Compound 24a, 5-Hydroxy-6-(4-methoxyphenyl)-1-phenyl-hexan-3-one]
1.3 | 1.2 | – | – | – | COc1ccc(CC(O)CC(=O)CCc2ccccc2)cc1 (single isomer, unassigned) [Compound 24b, 5-Hydroxy-6-(4-methoxyphenyl)-1-phenyl-hexan-3-one]
12.4 | 6.4 | – | – | – | O=C(CCc1ccccc1)CC(O)Cc1ccc2ccccc2c1 (single isomer, unassigned) [Compound 28a, 5-Hydroxy-6-naphthalen-2-yl-1-phenyl-hexan-3-one]
20.1 | 20.1 | – | – | – | O=C(CCc1ccccc1)CC(O)Cc1ccc2ccccc2c1 (single isomer, unassigned) [Compound 28b, 5-Hydroxy-6-naphthalen-2-yl-1-phenyl-hexan-3-one]
87.4 | 107.8 | – | – | – | O=C(CCCc1ccc(O)cc1)CC(O)c1cccc(O)c1 (single isomer, unassigned) [Compound 35a, 1-Hydroxy-1-(3-hydroxy-phenyl)-6-(4-hydroxy-phenyl)-hexan-3-one]
49.3 | 43.8 | – | – | – | O=C(CCCc1ccc(O)cc1)CC(O)c1cccc(O)c1 (single isomer, unassigned) [Compound 35b, 1-Hydroxy-1-(3-hydroxy-phenyl)-6-(4-hydroxy-phenyl)-hexan-3-one]
15.4 | 1.8 | – | – | – | O=C(CCCc1ccc(O)cc1)CC(O)Cc1ccc(O)cc1 (single isomer, unassigned) [Compound 42a, 2-Hydroxy-1,7-di-(4-hydroxy-phenyl)-heptan-4-one]
2.8 | −1.6 | – | – | – | O=C(CCCc1ccc(O)cc1)CC(O)Cc1ccc(O)cc1 (single isomer, unassigned) [Compound 42b, 2-Hydroxy-1,7-di-(4-hydroxy-phenyl)-heptan-4-one]
– | – | – | 3.0 | 1.1 | O=C(CC(O)CCc1ccccc1)c1ccccc1 (single isomer, unassigned) [Compound 54a, 3-Hydroxy-1,5-diphenyl-pentan-1-one]
– | – | – | 30.2 | 7.3 | O=C(CC(O)CCc1ccccc1)c1ccccc1 (single isomer, unassigned) [Compound 54b, 3-Hydroxy-1,5-diphenyl-pentan-1-one]
– | – | – | 78.8 | 20.5 | O=C(CCc1ccccc1)CC(O)c1ccccc1 (single isomer, unassigned) [Compound 56a, 1-Hydroxy-1,5-diphenyl-pentan-3-one]
– | – | – | 25.3 | 2.8 | O=C(CCc1ccccc1)CC(O)c1ccccc1 (single isomer, unassigned) [Compound 56b, 1-Hydroxy-1,5-diphenyl-pentan-3-one]
0 | – | -8.7 | – | – | COc1ccc(C(=O)CC(O)Cc2ccc(OCCN(C)C)cc2)cc1 (stereo not shown) [Compound 12ab, 4-[4-(2-Dimethylamino-ethoxy)phenyl]-3-hydroxy-1-(4-methoxy-phenyl)-butan-1-one]
22.6 | – | 58 | – | – | O=C(CC(O)Cc1ccccc1)c1ccc(O)cc1 (stereo not shown) [Compound 18ab, 3-Hydroxy-1-(4-hydroxyphenyl)-4-phenyl-butan-1-one]

ERα receptor activation relative to 10 nM E2 corresponding 100 (ERα) [%] | ERβ receptor activation relative to 10 nM E2 corresponding 100 (ERβ) [%] | Emax at 10 µM (ERβ) [%] | ERα in vitro activity (receptor activation relative to 10 nM E2) (ERα) [%] | ERβ in vitro activity (receptor activation relative to 10 nM E2) (ERβ) [%] | Structure (SMILES)
12.0 | – | 7.7 | – | – | O=C(Cc1ccccc1)CC(O)c1cccc(O)c1 (stereo not shown) [Compound 19ab, 4-Hydroxy-4-(3-hydroxyphenyl)-1-phenyl-butan-2-one]
4.3 | – | 0.2 | – | – | O=C(Cc1ccccc1)CC(O)CCc1ccccc1 (stereo not shown) [Compound 20ab, 4-Hydroxy-1,6-diphenylhexan-2-one]
25.1 | – | 21.1 | – | – | O=C(Cc1cccc(F)c1)CC(O)CCc1ccccc1 (stereo not shown) [Compound 21ab, 1-(3-Fluorophenyl)-4-hydroxy-6-phenyl-hexan-2-one]
80.3 | – | 116 | – | – | CC(O)(CC(=O)CCc1ccc(O)cc1)c1ccccc1 (stereo not shown) [Compound 23ab, 5-Hydroxy-1-(4-hydroxy-phenyl)-5-phenyl-hexan-3-one]
51.4 | – | 6.1 | – | – | O=C(CCc1ccccc1)CC(O)Cc1ccc(O)cc1 (stereo not shown) [Compound 25ab, 5-Hydroxy-6-(4-hydroxy-phenyl)-1-phenyl-hexan-3-one]
35.0 | – | 3.9 | – | – | O=C(CCc1ccccc1)CC(O)Cc1ccc(F)cc1 (stereo not shown) [Compound 26ab, 6-(4-Fluorophenyl)-5-hydroxy-1-phenyl-hexan-3-one]
12.1 | – | 1.7 | – | – | O=C(CCc1ccccc1)CC(O)Cc1cccc2ccccc12 (stereo not shown) [Compound 27ab, 5-Hydroxy-6-naphthalen-1-yl-1-phenyl-hexan-3-one]
45.2 | – | 5.1 | – | – | O=C(CCc1ccccc1O)CC(O)Cc1ccccc1 (stereo not shown) [Compound 30ab, 5-Hydroxy-1-(2-hydroxy-phenyl)-6-phenyl-hexan-3-one]
21.6 | – | 11.1 | – | – | O=C(CCc1ccccc1O)CC(O)Cc1ccc(F)cc1 (stereo not shown) [Compound 32ab, 6-(4-Fluoro-phenyl)-5-hydroxy-1-(2-hydroxy-phenyl)-hexan-3-one]
28.6 | – | 21.2 | – | – | O=C(CCc1ccc(O)cc1)CC(O)Cc1ccc(F)cc1 (stereo not shown) [Compound 33ab, 6-(4-Fluoro-phenyl)-5-hydroxy-1-(4-hydroxy-phenyl)-hexan-3-one]
90.9 | – | 103 | – | – | CC(O)(CC(=O)CCCc1ccc(O)cc1)c1ccccc1 (stereo not shown) [Compound 37ab, 6-Hydroxy-1-(4-hydroxy-phenyl)-6-phenyl-heptan-4-one]
24.7 | – | 9.1 | – | – | O=C(CCCc1ccccc1)CC(O)Cc1ccccc1 (stereo not shown) [Compound 38ab, 2-Hydroxy-1,7-diphenyl-heptan-4-one]
16.0 | – | 2.4 | – | – | O=C(CCCc1ccccc1)CC(O)Cc1ccc(O)cc1 (stereo not shown) [Compound 39ab, 2-Hydroxy-1-(4-hydroxy-phenyl)-7-phenyl-heptan-4-one]
−0.5 | – | -0.8 | – | – | O=C(CCCc1ccc(O)c(O)c1)CC(O)Cc1ccccc1 (stereo not shown) [Compound 41ab, 2-Hydroxy-7-(3,4-dihydroxy-phenyl)-1-phenyl-heptan-4-one]
2.2 | – | -7.1 | – | – | O=C(CCCc1ccccc1)CC(O)CCc1ccccc1 (stereo not shown) [Compound 43ab, 6-Hydroxy-1,8-diphenyl-octan-4-one]
12.0 | – | 0.2 | – | – | COC(CCc1ccccc1)CC(=O)Cc1ccccc1 (stereo not shown) [Compound 44ab, 4-Methoxy-1,6-diphenyl-hexan-2-one]

— patent US20100249243A1, “NOVEL BETA-HYDROXYKETONES AND BETA-ALKOXYKETONES WITH ESTROGENIC ACTIVITY” (priority 2007, published 2010)
